Source: patent US20070128217A1 (priority 2003, published 2007)

Tests used:
[1] = tested on: control sera (pooled serum of ten healthy LUMC hospital workers; commercial negative donor pooled serum from the Dutch bloodbank); format: binding, human; parameters: Binding of Control serum LUMC to linear peptides / Binding of Control serum Blood-bank to linear peptides / Binding of Control serum LUMC to looped peptides / Binding of Control Serum Blood-Bank to Looped peptides / Binding of Control serum LUMC to linear peptides of the protein M of SARS-CoV Urbani / Binding of Control serum Blood-bank to linear peptides of the protein M of SARS-CoV Urbani / Binding of Control serum LUMC to looped peptides of the protein M of SARS-CoV Urbani / Binding of Control Serum Blood-Bank to Looped peptides of the protein M of SARS-CoV Urbani: unit not given here
[2] = tested on: rabbit serum obtained by immunizing a rabbit with the SARS-CoV strain Frankfurt 1; format: binding; parameters: Binding of a rabbit serum to linear peptides / Binding of a rabbit serum to looped peptides / Rabbit serum linear peptides / Rabbit serum looped peptides / Binding of a rabbit serum to linear peptides of protein N of SARS-CoV Urbani (Rabbit serum linear peptides) / Binding of a rabbit serum to looped/cyclic peptides of protein N of SARS-CoV Urbani (Rabbit serum looped peptides): unit not given here
[3] = tested on: antibodies in sera from SARS patients (sera 1a, 1b, 2, 6, 37, 62, London, SARS-yellow, SARS-green); format: binding, human; parameters: Binding of serum 6 to linear peptides of protein X1 of SARS-CoV Urbani / Binding of serum 37 to linear peptides of protein X1 of SARS-CoV Urbani / Binding of serum 6 to looped/cyclic peptide (PEPSCAN-ELISA) / Binding of serum 37 to looped/cyclic peptide (PEPSCAN-ELISA) / Binding of serum 37 to looped/cyclic peptides of protein X1 of SARS-CoV Urbani / Binding of serum 6 to linear peptides of protein X2 / Binding of serum 37 to linear peptides of protein X2 / Binding of serum 37 to looped/cyclic peptides of protein X2 of SARS-CoV Urbani / Binding of serum 6 to linear peptides of protein M of SARS-CoV Urbani / Binding of serum 37 to linear peptides of protein M of SARS-CoV Urbani / Binding of serum 6 to looped/cyclic peptides of protein M of SARS-CoV Urbani / Binding of serum 37 to looped/cyclic peptides of protein M of SARS-CoV Urbani / Binding of serum 6 to linear peptides of protein X3 of SARS-CoV Urbani / Binding of serum 37 to linear peptides of protein X3 of SARS-CoV Urbani / Binding of serum 37 to looped/cyclic peptides of protein X3 of SARS-CoV Urbani / Binding of serum 6 to linear peptides of protein X4 of SARS-CoV Urbani / Binding of serum 37 to linear peptides of protein X4 of SARS-CoV Urbani / Binding of serum 37 to looped/cyclic peptides of protein X4 of SARS-CoV Urbani / Binding of serum 6 to linear peptides of protein X5 of SARS-CoV Urbani / Binding of serum 37 to linear peptides of protein X5 of SARS-CoV Urbani / Binding of serum 37 to looped/cyclic peptides of protein X5 of SARS-CoV Urbani / Binding of serum 6 to linear peptides of protein N of SARS-CoV Urbani / Binding of serum 37 to linear peptides of protein N of SARS-CoV Urbani / Binding of serum 6 to linear peptide (PEPSCAN-ELISA) / Binding of serum 1a to looped/cyclic peptides of protein N of SARS-CoV Urbani / Binding of serum 1b to looped/cyclic peptides of protein N of SARS-CoV Urbani / Binding of serum 2 to looped/cyclic peptides of protein N of SARS-CoV Urbani / Binding of serum 6 to looped/cyclic peptides of protein N of SARS-CoV Urbani / Binding of serum 37 to looped/cyclic peptides of protein N of SARS-CoV Urbani / Binding of serum 62 to looped/cyclic peptides of protein N of SARS-CoV Urbani / Binding of serum London to looped/cyclic peptides of protein N of SARS-CoV Urbani / Binding of serum SARS-green to looped/cyclic peptides of protein N of SARS-CoV Urbani: unit not given here
[4] = tested on: recombinant human anti-SARS-CoV antibody 03-018; format: binding; parameters: Binding of antibody 03-018 to linear peptides of the N protein of SARS-CoV Urbani / Binding of antibody 03-018 to looped/cyclic peptides of the N protein of SARS-CoV Urbani: unit not given here

| Sequence | Binding of Control Serum Blood-Bank to Looped peptides [1] | Binding of Control serum Blood-bank to linear peptides [1] | Binding of Control serum LUMC to linear peptides [1] | Binding of Control serum LUMC to looped peptides [1] | Binding of a rabbit serum to linear peptides of protein N of SARS-CoV Urbani (Rabbit serum linear peptides) [2] | Binding of a rabbit serum to looped/cyclic peptides of protein N of SARS-CoV Urbani (Rabbit serum looped peptides) [2] | Binding of serum 1a to linear peptides of protein N of SARS-CoV Urbani [3] | Binding of serum 1a to looped/cyclic peptides of protein N of SARS-CoV Urbani [3] | Binding of serum 1b to linear peptides of protein N of SARS-CoV Urbani [3] | Binding of serum 1b to looped/cyclic peptides of protein N of SARS-CoV Urbani [3] | Binding of serum 2 to linear peptides of protein N of SARS-CoV Urbani [3] | Binding of serum 2 to looped/cyclic peptides of protein N of SARS-CoV Urbani [3] | Binding of serum 6 to looped/cyclic peptides of protein N of SARS-CoV Urbani [3] | Binding of serum 37 to looped/cyclic peptides of protein N of SARS-CoV Urbani [3] | Binding of serum 62 to looped/cyclic peptides of protein N of SARS-CoV Urbani [3] | Binding of serum London to looped/cyclic peptides of protein N of SARS-CoV Urbani [3] | Binding of serum SARS-green to looped/cyclic peptides of protein N of SARS-CoV Urbani [3] | Binding of serum SARS-yellow to looped/cyclic peptides of protein N of SARS-CoV Urbani [3] | Binding of antibody 03-018 to linear peptides of the N protein of SARS-CoV Urbani [4] | Binding of antibody 03-018 to looped/cyclic peptides of the N protein of SARS-CoV Urbani [4] | further results |
| --- | --- | --- | --- | --- | --- | --- | --- | --- | --- | --- | --- | --- | --- | --- | --- | --- | --- | --- | --- | --- | --- |
| PKQRRPQGLPNNTAS | 0.8 | 0.8 | 0.7 | 1.0 | 0.2 | 0.2 | 0.2 | 0.5 | 0.1 | 0.5 | 0.4 | 0.8 | 0.4 | 0.8 | 0.7 | 0.6 | 3.1 | 0.9 | 0.2 | 0.3 | Binding of serum 6 to linear peptides of protein N of SARS-CoV Urbani [3]: 0.2; Binding of serum 37 to linear peptides of protein N of SARS-CoV Urbani [3]: 0.9; Binding of serum 62 to linear peptides of protein N of SARS-CoV Urbani [3]: 0.7; Binding of serum London to linear peptides of protein N of SARS-CoV Urbani [3]: 0.6; Binding of serum SARS-green to linear peptides of protein N of SARS-CoV Urbani [3]: 0.6; Binding of serum SARS-yellow to linear peptides of protein N of SARS-CoV Urbani [3]: 0.6 |
| DMDDFSRQLQNSMSG | – | – | – | – | 0.2 | 0.4 | 0.2 | 0.3 | 0.2 | 0.1 | 0.2 | 0.3 | 0.0 | 0.4 | 0.2 | 0.2 | 0.0 | 0.2 | 0.1 | 0.2 | Control Serum Blood-Bank Looped peptides [1]: 0.4; Control serum Blood-bank linear peptides [1]: 0.8; Control serum LUMC linear peptides [1]: 0.6; Control serum LUMC looped peptides [1]: 0.3; Binding of serum 6 to linear peptides of protein N of SARS-CoV Urbani [3]: 0.3; Binding of serum 37 to linear peptides of protein N of SARS-CoV Urbani [3]: 0.8; Binding of serum 62 to linear peptides of protein N of SARS-CoV Urbani [3]: 0.7; Binding of serum London to linear peptides of protein N of SARS-CoV Urbani [3]: 0.7; Binding of serum SARS-green to linear peptides of protein N of SARS-CoV Urbani [3]: 0.3; Binding of serum SARS-yellow to linear peptides of protein N of SARS-CoV Urbani [3]: 0.7 |
| QQGQTVTKKSAAEAS | 0.5 | 0.8 | 0.7 | 0.5 | 0.2 | 0.0 | – | 0.5 | – | 0.4 | – | 0.5 | 0.3 | 0.6 | 0.5 | 0.4 | 0.8 | 0.5 | 0.1 | 0.2 | Recognition of the peptide by sera of SARS-CoV infected individuals, and form (linear, looped/cyclic) in which it is recognized [3]: recognized in linear form |
| LLDRLNQLESKVSGK | 0.3 | 0.7 | 0.6 | 0.2 | 0.6 | 0.1 | – | 0.2 | – | 0.1 | – | 0.2 | 0.1 | 0.4 | 0.4 | 0.3 | 0.0 | 0.1 | 0.1 | 0.2 | Binding of serum 1a to linear peptide (PEPSCAN-ELISA) [3]: 0.2; Binding of serum 1b to linear peptide (PEPSCAN-ELISA) [3]: 0.1; Binding of serum 2 to linear peptide (PEPSCAN-ELISA) [3]: 0.3; Binding of serum 6 to linear peptide (PEPSCAN-ELISA) [3]: 0.2; Binding of serum 37 to linear peptide (PEPSCAN-ELISA) [3]: 0.7; Binding of serum 62 to linear peptide (PEPSCAN-ELISA) [3]: 0.6; Binding of serum London to linear peptide (PEPSCAN-ELISA) [3]: 0.5; Binding of serum SARS-green to linear peptide (PEPSCAN-ELISA) [3]: 0.4; Binding of serum SARS-yellow to linear peptide (PEPSCAN-ELISA) [3]: 0.7 |
| KQPTVTLLPAADMDD | – | – | – | – | 0.1 | 0.1 | 0.3 | 0.3 | 0.2 | 0.2 | 0.2 | 0.2 | 0.0 | 0.4 | 0.3 | 0.2 | 0.6 | 0.3 | 0.1 | 0.2 | Control Serum Blood-Bank Looped peptides [1]: 0.4; Control serum Blood-bank linear peptides [1]: 0.7; Control serum LUMC linear peptides [1]: 0.7; Control serum LUMC looped peptides [1]: 0.3; Binding of serum 6 to linear peptides of protein N of SARS-CoV Urbani [3]: 0.2; Binding of serum 37 to linear peptides of protein N of SARS-CoV Urbani [3]: 1.2; Binding of serum 62 to linear peptides of protein N of SARS-CoV Urbani [3]: 0.8; Binding of serum London to linear peptides of protein N of SARS-CoV Urbani [3]: 0.6; Binding of serum SARS-green to linear peptides of protein N of SARS-CoV Urbani [3]: 2.4; Binding of serum SARS-yellow to linear peptides of protein N of SARS-CoV Urbani [3]: 1.1 |
